Experiments:
ME-1 cells [1] = assay: MTT viability assay, growth of ME-1 cells; format: cell-based, human; details: MTT, FIG. 4A
Text: (§1) We have tested several of the compounds we have synthesized for their effects on ME-1 cells, a leukemia cell line harboring the inv(16) (Yanagisawa, Horiuchi et al. 1991). […] AI-4-57 has also been tested against the Kasumi-1, Jurkat, and RS4; 11 leukemia cell lines (FIG. 4.B). […] We have also examined effects on apoptosis using flow cytometry to measure Annexin V/PI (propidium iodide) positivity. […] The selectivity for specific cell lines and the correlation of activity in the FRET assay with effects on inv(16) cells all support the hypothesis that the compounds are hitting the desired target.
The dimer with a 7 atom linker (AI-4-62) has been tested for effects on the growth of the ME-1 cell line (see FIG. 7), a leukemia cell line with the inv(16).

RS4; 11 cells = assay: MTT assay, growth of RS4;11 cells; format: cell-based; details: MTT, FIG. 4B
Text: as §1
(§2) Below are two exemplary dimeric compound formulas, shown here without the possible substituents indicated elsewhere herein.

Kasumi-1 cells = assay: MTT assay, growth of Kasumi-1 cells; format: cell-based; details: MTT, FIG. 4B
Text: as §1, §2

CBFβ = CBFβ (Homo sapiens (Human), UniProt Q13951); assay: NMR chemical shift perturbation with CBFβ; format: binding; details: for NMR with CBFβ + 250 uM compound, CSP G 112: residue G 112; for NMR with CBFβ + 250 uM compound, CSP K 98: residue K 98
Sequence of CBFβ (Q13951 1-141, species assumed): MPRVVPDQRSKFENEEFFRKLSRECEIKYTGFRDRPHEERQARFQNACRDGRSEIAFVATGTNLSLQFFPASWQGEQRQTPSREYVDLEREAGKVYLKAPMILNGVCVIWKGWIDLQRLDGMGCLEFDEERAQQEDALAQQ
Text: Validation of binding of a small molecule inhibitor to its protein target is an essential step in developing potent inhibitors. This can be readily achieved using either NMR spectroscopy or X-ray crystallography. In the case of X-ray crystallography, this is achieved by co-crystallization of the protein with the ligand and determination of the structure. In the case of NMR spectroscopy, the structure of a compound-protein complex can also be determined. In addition, chemical shift perturbations of the protein NMR spectrum (typically 2D ^15N—^1H HSQC or ^13C—^1H HSQC) in the presence of compounds can both confirm binding to the target and localize the binding site on a protein (Pellecchia, Sem et al. 2002; Salvatella and Giralt 2003). The latter method is a quick and efficient method to confirm binding to the protein and to determine the binding site when appropriate labeled samples are available and the resonance assignments are known. Such data can also be used to dock the small molecule to the protein. Because the structure of CBFβ has been solved by NMR (Huang, Peng et al. 1999), resonance assignments are available and we have employed this approach as an additional screen to ensure the validity of the inhibitors we are developing and to determine the binding site (see below).

Jurkat cells = assay: MTT assay, growth of Jurkat cells; format: cell-based; details: MTT, FIG. 4B
Text: as §1, §2

[2] = test system: CBFβ-SMMHC:RD (CBFβ-SMMHC binding to the Runt domain); assay: FRET assay, inhibition of CBFβ-SMMHC binding to the Runt domain; details: for IC50 FRET (CBFβ-SMMHC:RD, 20 nM both): 20 nM both proteins
Experimental: FRET assay. […] We fused the green fluorescent protein derivative Cerulean to the N-terminus of the Runt domain and the green fluorescent protein derivative Venus to the N-terminus of CBFβ-SMMHC (as well as to CBFβ (Gorczynski, Grembecka et al. 2007)). The ratio of the emission intensities at 525 nm and 474 nm, measured after excitation at 433 nm, was used as the readout in this assay. The dynamic range for the FRET assay was determined by adding a 30-fold excess of untagged CBFβ-SMMHC (or CBFβ in the case of CBFβ—Runt domain binding) to the assay and the associated change in the FRET ratio was defined as 100% inhibition.
As shown by Shoichet and co-workers (Seidler, McGovern et al. 2003), a primary source of false positives in any screen is micelle formation. […] A substantial loss of activity in the presence of detergent is a hallmark of inhibition by micelle formation and such compounds are thus identified as false positives. In addition, we are also incubating compound with protein and checking by mass spectroscopy to ensure that positive hits are not acting by covalent addition to either of the proteins.

ME-1 cells [3] = assay: Apoptosis by flow cytometry, Annexin V/PI positivity; format: cell-based, human; details: FIG. 4C
Text: as §1

For `COc1ccc2[nH]c(-c3ccccn3)nc2c1` [AI-4-57], the “Growth of ME-1 cells” value (ME-1 cells [1]) was “effective inhibition of growth”, the “Growth of RS4;11 cells” value (RS4; 11 cells) was “No effect on growth” and the “Growth of Kasumi-1 cells” value (Kasumi-1 cells) was “modest effect”. The “NMR with CBFβ + 250 uM compound, CSP G 112” value (CBFβ) was 0.039 ppm, the “NMR with CBFβ + 250 uM compound, CSP K 98” value (“NMR … CSP K 98” below) (CBFβ) was 0.026 ppm and the “Growth of Jurkat cells” value (Jurkat cells) was “No effect on growth”.

With `NC(=O)c1ccc2[nH]c(-c3ccccn3)nc2c1` [AI-10-70] the Δ500 [2] was “Δ500 = 61%”.

`CC(C)Oc1ccc2[nH]c(-c3ccccn3)nc2c1` [AI-4-70] was tested, and the “NMR with CBFβ + 250 uM compound, CSP G 112/K 98 (in words)” value (“NMR … (in words)” below) (CBFβ) was “No CSP”.

In the case of `c1cc(-c2nc3cc(N4CCCC4)ccc3[nH]2)ncc1OCCOCCOc1ccc(-c2nc3cc(N4CCCC4)ccc3[nH]2)nc1` [AI-10-98], the “IC50 FRET (CBFβ-SMMHC:RD, 20 nM both)” value ([2]; Table 2 dimers) is reported as “Interference with assay”.

With `c1ccc(-c2nc3cc(N4CCCCC4)ccc3[nH]2)nc1` [AI-10-82] the “IC50 FRET (CBFβ-SMMHC:RD, 20 nM both)” value ([2]; Table 1 monomers) was “Interference with assay”, the “NMR with CBFβ + 250 uM compound, CSP G 112” value (CBFβ) was 0.032 ppm and the “NMR … CSP K 98” value (CBFβ) was 0.016 ppm.

With `O=C(O)c1ccc2[nH]c(-c3ccccn3)nc2c1` [AI-10-57] the “NMR … (in words)” value (CBFβ) was “No CSP”.

In the case of `COc1ccnc(-c2nc3cc(OC)ccc3[nH]2)c1` [LD-2-101], the “NMR … (in words)” value (CBFβ) is reported as “No CSP”.

In the case of `Cc1cccnc1-c1nc2cc(OC(F)(F)F)ccc2[nH]1` [AI-10-63], the Δ500 [2] is reported as “Δ500 = 61%”.

With `Fc1ccc2[nH]c(-c3ccccn3)nc2c1` [LD-1-31] the “NMR … (in words)” value (CBFβ) was “No CSP” and the “Precipitation in the NMR sample” value (CBFβ; 250 uM compound with CBFβ) was “Strong precipitation”.

In the case of `CSc1ccc2[nH]c(-c3ccccn3)nc2c1` [AI-10-35], the “NMR with CBFβ + 250 uM compound, CSP G 112” value (CBFβ) is reported as 0.037 ppm and the “NMR … CSP K 98” value (CBFβ) is reported as 0.027 ppm.

For `Oc1ccc2[nH]c(-c3ccccn3)nc2c1` [AI-10-61], the “NMR … (in words)” value (CBFβ) was “No CSP”.

`CCOc1ccc2[nH]c(-c3ccccn3)nc2c1` [LD-1-29] was tested, and the “Growth of ME-1 cells” value (ME-1 cells [1]) was “effective inhibition of growth”, the “NMR with CBFβ + 250 uM compound, CSP G 112” value (CBFβ) was 0.026 ppm and the “NMR … CSP K 98” value (CBFβ) was “no change”. The “Apoptosis (AnnexinV/PI)” value (ME-1 cells [3]; 40 μM) was “substantial apoptosis” and the “Percentage of apoptotic cells (AnnexinV/PI)” value (ME-1 cells [3]; 3 different concentrations) was “clear dose-dependent increase in the percentage of apoptotic cells”.

In the case of `c1ccc(-c2nc3cc(N4CCOCC4)ccc3[nH]2)nc1` [AI-10-3], the “NMR … (in words)” value (CBFβ) is reported as “No CSP”.

In the case of `COc1ccc2[nH]c(-c3cccc(C)n3)nc2c1` [LD-2-89], the Δ333 [2] is reported as “Δ333 = 17%”.

For `COc1c(F)cc2[nH]c(-c3ccccn3)nc2c1F` [LD-1-39], the “NMR … (in words)” value (CBFβ) was “No CSP”.

`c1ccc(-c2nc3cc(-n4ccnc4)ccc3[nH]2)nc1` [AI-10-88] was tested, and the “NMR … (in words)” value (CBFβ) was “No CSP”.

Source: patent US8748618B2, “Inhibitors of inv(16) leukemia” (University of Virginia Patent Foundation, priority 2009, dated 2014)
